{"source": "paper PMC8065136", "about": "“Elevated expression of the adhesion GPCR ADGRL4/ELTD1 promotes endothelial sprouting angiogenesis without activating canonical GPCR signalling” (Scientific Reports, 2021)", "origin": "cited, not measured here", "system": "GPR97", "experimental": "Another possible explanation for the lack of detectable signalling pathways is that other means of activation need to be employed to activate the receptor. Among them mechanical forces or incubation of the full length receptor with a ligand that has not yet been identified. […] Examples include beclomethasone dipropionate on GPR97[45] or Gedunin- and Khivorin-derivatives on GPR56 and GPR114[46]. It is possible that endogenous small molecules could activate ADGRL4/ELTD1 irrespective of the existence of a functional tethered agoni ...", "data": [{"smiles": "CCC(=O)OCC(=O)[C@@]1(OC(=O)CC)[C@@H](C)C[C@H]2[C@@H]3CCC4=CC(=O)C=C[C@]4(C)[C@@]3(Cl)[C@@H](O)C[C@@]21C", "note": "[beclomethasone dipropionate]", "values": [{"measurement": "Activation of aGPCR", "result": "activate"}]}]}
